The assay has as its target T1, Chk1 (Homo sapiens, UniProt O14757).
T1 construct: purchased Upstate Biotechnology
T1 sequence (O14757 1-476): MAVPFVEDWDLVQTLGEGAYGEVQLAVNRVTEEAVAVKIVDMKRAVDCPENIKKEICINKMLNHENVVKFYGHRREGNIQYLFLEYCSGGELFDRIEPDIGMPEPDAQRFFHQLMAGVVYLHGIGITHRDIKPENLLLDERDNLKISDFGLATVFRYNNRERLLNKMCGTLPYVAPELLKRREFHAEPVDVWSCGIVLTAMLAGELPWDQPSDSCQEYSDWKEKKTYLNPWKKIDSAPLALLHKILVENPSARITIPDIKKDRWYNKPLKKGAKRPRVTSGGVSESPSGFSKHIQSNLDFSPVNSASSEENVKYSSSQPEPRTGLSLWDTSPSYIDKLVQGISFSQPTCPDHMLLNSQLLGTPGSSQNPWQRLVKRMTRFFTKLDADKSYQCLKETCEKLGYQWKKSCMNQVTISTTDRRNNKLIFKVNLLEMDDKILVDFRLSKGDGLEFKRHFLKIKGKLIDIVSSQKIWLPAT
As to the kind of experiment: Chk1 kinase assay: incorporation of γ-33P ATP into immobilized myelin basic protein. The format is biochemical. To be noted: Table 11, Chk1 only; class symbols A-D; read-out: Chk1 IC50. The gist of the method: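 Plates coated with MBP, then kinase reactions in Hepes pH 7.6 buffer with 10 mM MgCl2 and 1% DMSO were started by adding unlabeled plus γ-33P ATP (10 μM for Chk1 at 10 nM enzyme; 30 μM for Chk2 at 20 nM enzyme). After 1 h at room temperature, plates were washed and counted.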

Usually IC50 stands for the midpoint of a concentration-inhibition curve.

With `Nc1ncc(-c2cccc(C(=O)NCc3c(F)cccc3F)c2)nc1-c1nc([C@H]2CCCNC2)n[nH]1` [Example 827, 3-(5-amino-6-{3-[(3S)-piperidin-3-yl]-1H-1,2,4-triazol-5-yl}pyrazin-2-yl)-N-[(2,6-difluorophenyl)methyl]benzamide], the IC50 lay within 50 to 1000 nM. `Nc1ncc(-c2cccc(C(=O)NCc3c(F)cccc3Cl)c2)nc1-c1nc([C@H]2CCCNC2)n[nH]1` [Example 828, 3-(5-amino-6-{3-[(3S)-piperidin-3-yl]-1H-1,2,4-triazol-5-yl}pyrazin-2-yl)-N-[(2-chloro-6-fluorophenyl)methyl]benzamide]: the IC50 is 50 to 1000 nM.

As for `Nc1ncc(-c2cccc(C(=O)NCc3cc(Cl)ccc3Cl)c2)nc1-c1nc([C@H]2CCCNC2)n[nH]1` [Example 829, 3-(5-amino-6-{3-[(3S)-piperidin-3-yl]-1H-1,2,4-triazol-5-yl}pyrazin-2-yl)-N-[(2,5-dichlorophenyl)methyl]benzamide], the IC50 was 50 to 1000 nM. The result for `Nc1ncc(-c2cccc(C(=O)NCc3ccc(Cl)c(Cl)c3)c2)nc1-c1nc([C@H]2CCCNC2)n[nH]1` [Example 830, 3-(5-amino-6-{3-[(3S)-piperidin-3-yl]-1H-1,2,4-triazol-5-yl}pyrazin-2-yl)-N-[(3,4-dichlorophenyl)methyl]benzamide] reads below 50 nM; that for `COc1ccc(CNC(=O)c2cccc(-c3cnc(N)c(C(=O)N[C@H]4CCCNC4)n3)c2)cc1` [Example 831, 3-amino-6-{3-[({[4-(methyloxy)phenyl]methyl}amino)carbonyl]phenyl}-N-[(3S)-piperidin-3-yl]pyrazine-2-carboxamide], below 50 nM. Regarding `Nc1ncc(-c2cccc(C(=O)NCc3ccc(Cl)cc3Cl)c2)nc1C(=O)N[C@H]1CCCNC1` [Example 832, 3-amino-6-[3-({[(2,4-dichlorophenyl)methyl]amino}carbonyl)phenyl]-N-[(3S)-piperidin-3-yl]pyrazine-2-carboxamide], the IC50 was below 50 nM. `CC(C)(C)OC(=O)NCc1cccc(-c2cnc(N)c(C(=O)N[C@H]3CCCN(C(=O)OC(C)(C)C)C3)n2)c1` [Example 833, 1,1-dimethylethyl (3S)-3-{[(3-amino-6-{3-[({[(1,1-dimethylethyl)oxy]carbonyl}amino)methyl]phenyl}pyrazin-2-yl)carbonyl]amino}piperidine-1-carboxylate]: the IC50 is 50 to 1000 nM. Take `Nc1ncc(-c2cccc(C(=O)NCc3ccccc3F)c2)nc1-c1nnc([C@H]2CCCNC2)[nH]1` [Example 834, 3-(5-amino-6-{5-[(3S)-piperidin-3-yl]-4H-1,2,4-triazol-3-yl}pyrazin-2-yl)-N-[(2-fluorophenyl)methyl]benzamide]: the IC50 is below 50 nM. The result for `Nc1ncc(-c2cccc(C(=O)NCc3cccc(F)c3)c2)nc1-c1nnc([C@H]2CCCNC2)[nH]1` [Example 835, 3-(5-amino-6-{5-[(3S)-piperidin-3-yl]-4H-1,2,4-triazol-3-yl}pyrazin-2-yl)-N-[(3-fluorophenyl)methyl]benzamide] reads below 50 nM; that for `Nc1ncc(-c2cccc(C(=O)NCc3ccc(F)cc3)c2)nc1-c1nnc([C@H]2CCCNC2)[nH]1` [Example 836, 3-(5-amino-6-{5-[(3S)-piperidin-3-yl]-4H-1,2,4-triazol-3-yl}pyrazin-2-yl)-N-[(4-fluorophenyl)methyl]benzamide], below 50 nM.

Regarding `Nc1ncc(-c2cccc(C(=O)NCc3cccc(Cl)c3)c2)nc1-c1nnc([C@H]2CCCNC2)[nH]1` [Example 837, 3-(5-amino-6-{5-[(3S)-piperidin-3-yl]-4H-1,2,4-triazol-3-yl}pyrazin-2-yl)-N-[(3-chlorophenyl)methyl]benzamide], the IC50 was below 50 nM. The figure for `Nc1ncc(-c2cccc(C(=O)NCc3ccc(Cl)cc3)c2)nc1-c1nnc([C@H]2CCCNC2)[nH]1` [Example 838, 3-(5-amino-6-{5-[(3S)-piperidin-3-yl]-4H-1,2,4-triazol-3-yl}pyrazin-2-yl)-N-[(4-chlorophenyl)methyl]benzamide] is below 50 nM; for `NCc1cccc(-c2cnc(N)c(C(=O)N[C@H]3CCCNC3)n2)c1` [Example 839, 3-amino-6-[3-(aminomethyl)phenyl]-N-[(3S)-piperidin-3-yl]pyrazine-2-carboxamide] it is below 50 nM. With `Nc1ncc(-c2cccc(O)c2)nc1C(=O)N[C@H]1CCCNC1` [Example 840, 3-amino-6-(3-hydroxyphenyl)-N-[(3S)-piperidin-3-yl]pyrazine-2-carboxamide], the IC50 was below 50 nM. For `CC(C)(C)OC(=O)N1CCC[C@H](NC(=O)c2nc(-c3cccc(CN)c3)cnc2N)C1` [Example 841, 1,1-dimethylethyl (3S)-3-[({3-amino-6-[3-(aminomethyl)phenyl]pyrazin-2-yl}carbonyl)amino]piperidine-1-carboxylate], the IC50 lay within 50 to 1000 nM. The figure for `Nc1ncc(-c2cccc(C(=O)NCc3ccc(F)cc3)c2)nc1C(=O)N[C@H]1CCCNC1` [Example 842, 3-amino-6-[3-({[(4-fluorophenyl)methyl]amino}carbonyl)phenyl]-N-[(3S)-piperidin-3-yl]pyrazine-2-carboxamide] is below 50 nM; for `Nc1ncc(-c2cccc(C(=O)NCc3ccc(OC(F)(F)F)cc3)c2)nc1C(=O)N[C@H]1CCCNC1` [Example 843, 3-amino-N-[(3S)-piperidin-3-yl]-6-(3-{[({4-[(trifluoromethyl)oxy]phenyl}methyl)amino]carbonyl}phenyl)pyrazine-2-carboxamide] it is below 50 nM.

Turning to `Nc1ncc(-c2cccc(C(=O)NCc3ccc(-c4ccccc4)cc3)c2)nc1C(=O)N[C@H]1CCCNC1` [Example 844, 3-amino-6-(3-{[(biphenyl-4-ylmethyl)amino]carbonyl}phenyl)-N-[(3S)-piperidin-3-yl]pyrazine-2-carboxamide], the IC50 was below 50 nM. With `Nc1ncc(-c2cccc(C(=O)NCc3ccc(-c4cnns4)cc3)c2)nc1C(=O)N[C@H]1CCCNC1` [Example 845, 3-amino-N-[(3S)-piperidin-3-yl]-6-{3-[({[4-(1,2,3-thiadiazol-5-yl)phenyl]methyl}amino)carbonyl]phenyl}pyrazine-2-carboxamide], the IC50 was below 50 nM. The figure for `Nc1ncc(-c2cccc(C(=O)NCc3ccccc3OC(F)(F)F)c2)nc1C(=O)N[C@H]1CCCNC1` [Example 846, 3-amino-N-[(3S)-piperidin-3-yl]-6-(3-{[({2-[(trifluoromethyl)oxy]phenyl}methyl)amino]carbonyl}phenyl)pyrazine-2-carboxamide] is below 50 nM. As for `Nc1ncc(-c2cccc(C(=O)NCc3ccccc3-c3ccccc3)c2)nc1C(=O)N[C@H]1CCCNC1` [Example 847, 3-amino-6-(3-{[(biphenyl-2-ylmethyl)amino]carbonyl}phenyl)-N-[(3S)-piperidin-3-yl]pyrazine-2-carboxamide], the IC50 was below 50 nM. The figure for `Nc1ncc(-c2cccc(C(=O)NCc3ccc(F)cc3F)c2)nc1C(=O)N[C@H]1CCCNC1` [Example 848, 3-amino-6-[3-({[(2,4-difluorophenyl)methyl]amino}carbonyl)phenyl]-N-[(3S)-piperidin-3-yl]pyrazine-2-carboxamide] is below 50 nM.

Consider `Nc1ncc(-c2cccc(C(=O)NCc3ccc(Cl)cc3F)c2)nc1C(=O)N[C@H]1CCCNC1` [Example 849, 3-amino-6-[3-({[(4-chloro-2-fluorophenyl)methyl]amino}carbonyl)phenyl]-N-[(3S)-piperidin-3-yl]pyrazine-2-carboxamide], for which the IC50 is below 50 nM.

As for `Nc1ncc(-c2cccc(C(=O)NCc3ccc(F)c(C(F)(F)F)c3)c2)nc1C(=O)N[C@H]1CCCNC1` [Example 850, 3-amino-6-{3-[({[4-fluoro-3-(trifluoromethyl)phenyl]methyl}amino)carbonyl]phenyl}-N-[(3S)-piperidin-3-yl]pyrazine-2-carboxamide], the IC50 was below 50 nM. The result for `Nc1ncc(-c2cccc(C(=O)NCc3ccc4ccccc4c3)c2)nc1C(=O)N[C@H]1CCCNC1` [Example 851, 3-amino-6-(3-{[(naphthalen-2-ylmethyl)amino]carbonyl}phenyl)-N-[(3S)-piperidin-3-yl]pyrazine-2-carboxamide] reads below 50 nM; that for `CN(C)c1ccc(CNC(=O)c2cccc(-c3cnc(N)c(C(=O)N[C@H]4CCCNC4)n3)c2)cc1` [Example 852, 3-amino-6-{3-[({[4-(dimethylamino)phenyl]methyl}amino)carbonyl]phenyl}-N-[(3S)-piperidin-3-yl]pyrazine-2-carboxamide], below 50 nM; that for `Nc1ncc(-c2cccc(C(=O)NCc3ccc4c(c3)OCO4)c2)nc1C(=O)N[C@H]1CCCNC1` [Example 853, 3-amino-6-(3-{[(1,3-benzodioxol-5-ylmethyl)amino]carbonyl}phenyl)-N-[(3S)-piperidin-3-yl]pyrazine-2-carboxamide], below 50 nM.

As for `COc1ccccc1CNC(=O)c1cccc(-c2cnc(N)c(C(=O)N[C@H]3CCCNC3)n2)c1` [Example 855, 3-amino-6-{3-[({[2-(methyloxy)phenyl]methyl}amino)carbonyl]phenyl}-N-[(3S)-piperidin-3-yl]pyrazine-2-carboxamide], the IC50 was below 50 nM.

The record behind these values is US7704995B2 (Exelixis, Inc., priority 2003, dated 2010).
